Test results from patent US8455474B2, “Method for treating tuberculosis” (Mackay Memorial Hospital, priority 2011, dated 2013).

Assays:
[1] = test system: Mycobacterium tuberculosis; assay: Killing kinetics in vitro (7H9 broth OD600, CFU on 7H11 agar); type: cell-based
Experimental: Mycobacterium tuberculosis strains were obtained from the culture collection of the Mycobacteriology Laboratory, Mackay Memorial Hospital, Taipei, Taiwan. The organisms were cultured on Lowenstein-Jensen medium slant at 37° C. in a 10% CO2 humidified atmosphere. In mid-log phase, the colonies were harvested and resuspended with PBS. The turbidity of suspension was adjusted to a McFarland 0.5 standard, containing approximately 1×10^8 bacteria/ml.
Strains were grown in 7H9 medium and the turbidity of suspension was adjusted to a McFarland 0.5 standard and used as inocula after ten-fold dilution in 7H9 medium with or without various concentrations of EZETIMIBE. The kinetics of bactericidal effect of EZETIMIBE was estimated by measuring the optical density at 600 nm at the indicated time points, followed by plating for colony formation unit (CFU) enumeration on 7H11 agar plates.

[2] = test system: M. tuberculosis internalization into monocytes; assay: Internalization of M. tuberculosis by monocytes (flow cytometry); type: cell-based, Mycobacterium tuberculosis
Experimental: (§1) Peripheral blood mononuclear cells were isolated from whole blood by means of Ficoll-Paque gradient centrifugation. Monocytes were incubated with CD14 microbeads, after which the CD14-positive cells were separated out by a magnet. These cells were seeded in U-bottom 96-well plates at a density of 2×10^5 cells in a volume of 200 μl of PRMI-1640 medium with 10% FCS and cultured for 1 hour in the presence or absence of EZETIMIBE (resolved in alcohol). Next, 5×10^5 M. tuberculosis bacteria were added to each well, followed by incubation for 24 hours. Cell viability was tested by using trypan blue staining. In the post-treatment experiment, monocytes were infected with M. tuberculosis bacteria for 1 hour and then added with EZETIMIBE for another 24 hours. In the cholesterol supplement experiment, water soluble cholesterol (Sigma) was resolved in sterile deionized water and added into the culture medium with or without EZETIMIBE.
Infected monocytes described above receiving either EZETIMIBE or control were washed with PBS to remove unbound bacteria and fixed with 4% formalin for 24 hours at 4° C. Then cells were permeabilized by using permeabilization buffer and stained with fluorescein isothiocyanate-conjugated anti-M. tuberculosis antibody for 1 hour at 4° C. The fluorescence intensity of intracellular M. tuberculosis was than analyzed by flow cytometry. Stained cells were evaluated by FACS Calibur flow cytometer (BD Bioscience). Analysis was performed using CellQuest software (BD Bioscience).
As shown in FIGS. 2A-2D, the experiments were performed to assess whether the treatment of EZETIMIBE affected M. tuberculosis internalization into monocytes, and the monocytes were pretreated with EZETIMIBE for 24 hours or 48 hours.

[3] = test system: intracellular M. tuberculosis in monocytes; assay: Intracellular survival of M. tuberculosis in monocytes (CFU assay); type: cell-based, Mycobacterium tuberculosis
[4] = target: T1, CD13 (Homo sapiens, UniProt P15144); assay: CD13 expression on monocytes (antiCD13 antibody staining); type: cell-based; settings: monocytes pretreated 24 or 48 hours, clones WM15 and WM47
T1 construct: whether the treatment of EZETIMIBE affected CD13 expression on monocytes; endogenous in cells; host or cells: monocytes

[5] = test system: monocytes; assay: Cholesterol uptake of monocytes (nile red staining, flow cytometry); type: cell-based; settings: cholesterol supplement 10 μg/ml
Experimental: as §1
A stock solution of nile red (1 mg/ml) in acetone was prepared and stored at 4° C. and protected from light. The nile red solution was added to the cell preparation (final concentration: 1 μg/ml) for 10 minutes and excess dye was washed away with PBS. Nile red fluorescence was examined at two spectral settings, yellow-gold fluorescence (FL1 channel, excitation, 488 nm; emission, 530±30 nm) for cytoplasmic neutral lipids and red fluorescence (FL2 channel, excitation, 488 nm; emission, 585±21 nm) for polar lipids, consist of phospholipids, other amphipathic lipids, and strongly hydrophobic proteins of cell membranes as reported. Stained cells were evaluated by FACS Calibur flow cytometer (BD Bioscience). Analysis was performed using CellQuest software (BD Bioscience).
As shown in FIGS. 5A-B, monocytes were infected with M. tuberculosis bacteria followed by treatment with EZETIMIBE for 24 hours. Nile red staining was used to assess the intracellular lipid droplets by flow cytometry. Nile red fluorescence was examined at two spectral settings, yellow-gold fluorescence (FL1 channel, excitation, 488 nm; emission, 530±30 nm) for cytoplasmic neutral lipids, included triglyceride, cholesterol, cholesterol esters and free fatty acid, and red fluorescence (FL2 channel, excitation, 488 nm; emission, 585±21 nm) for polar lipids. Significant increase fluorescence intensity of FL1 channel not FL2 channel was observed following cholesterol supplement (10 μg/ml) in monocytes culture without infection, and EZETIMIBE (10 μg/ml and 20 μg/ml) can inhibit the uptake of cholesterol by reducing the relative fluorescence of FL1 channel from 1.5 to 1.2 and 1.3, respectively.

[6] = test system: intracellular M. tuberculosis in monocytes; assay: Intracellular survival of M. tuberculosis in monocytes with cholesterol supplement (CFU assay); type: cell-based, Mycobacterium tuberculosis; settings: post-treatment 24 hours

T1 sequence (P15144 whole entry): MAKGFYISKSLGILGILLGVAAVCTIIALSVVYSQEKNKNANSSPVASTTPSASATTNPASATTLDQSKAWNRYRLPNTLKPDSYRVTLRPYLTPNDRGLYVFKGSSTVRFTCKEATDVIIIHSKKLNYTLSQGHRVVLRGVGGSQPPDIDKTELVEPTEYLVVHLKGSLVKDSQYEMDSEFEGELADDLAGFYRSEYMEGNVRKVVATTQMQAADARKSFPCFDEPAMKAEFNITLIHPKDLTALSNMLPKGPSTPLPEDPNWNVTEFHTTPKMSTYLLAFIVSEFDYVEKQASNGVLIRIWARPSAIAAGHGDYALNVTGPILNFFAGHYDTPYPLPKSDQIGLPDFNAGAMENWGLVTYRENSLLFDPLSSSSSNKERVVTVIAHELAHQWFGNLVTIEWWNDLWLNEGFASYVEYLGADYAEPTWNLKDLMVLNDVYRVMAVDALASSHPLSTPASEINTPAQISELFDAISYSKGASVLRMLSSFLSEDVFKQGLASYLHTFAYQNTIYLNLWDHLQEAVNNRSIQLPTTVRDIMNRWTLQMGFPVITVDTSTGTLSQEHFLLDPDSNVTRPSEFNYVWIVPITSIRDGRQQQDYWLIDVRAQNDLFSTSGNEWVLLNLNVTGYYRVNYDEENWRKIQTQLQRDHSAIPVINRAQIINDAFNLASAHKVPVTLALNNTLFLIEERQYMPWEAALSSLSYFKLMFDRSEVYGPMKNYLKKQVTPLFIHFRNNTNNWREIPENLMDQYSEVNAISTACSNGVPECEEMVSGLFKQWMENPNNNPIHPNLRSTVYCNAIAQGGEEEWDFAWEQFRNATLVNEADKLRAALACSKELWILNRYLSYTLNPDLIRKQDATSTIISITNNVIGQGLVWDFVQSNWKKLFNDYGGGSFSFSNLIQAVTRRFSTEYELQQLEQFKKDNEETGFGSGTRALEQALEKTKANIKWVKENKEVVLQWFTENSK

## O=C1[C@H](CC[C@H](O)c2ccc(F)cc2)[C@@H](c2ccc(O)cc2)N1c1ccc(F)cc1 [EZETIMIBE, (3R,4S)-1-(4-fluorophenyl)-3-[(3S)-3-(4-fluorophenyl)-3-hydroxypropyl]-4-(4-hydroxyphenyl)zetidin-2-one]
[1]; 15 and 30 μg/ml for 72 hours, read at 3rd week (FIG. 1C)
  colony-forming units (CFU) of Mycobacterium tuberculosis on 7H11 agar plate: significantly reduced
[1]; FIG. 1B
  M. tuberculosis survival in suspension with increasing amount of bacteria: inhibition on M. tuberculosis survival was found
[1]; increasing concentrations, 2nd and 3rd week (FIG. 1A)
  growth of Mycobacterium tuberculosis in 7H9 broth: inhibition effect on growth
[2]; post-treatment of monocytes, 24 hours
  entry reduction of M. tuberculosis into monocytes: up to 0.65%
[2]; post-treatment of monocytes, 48 hours
  entry reduction of M. tuberculosis into monocytes: ≤ 26.02%
[2]; pre-treatment of monocytes, 48 hours
  entry reduction of M. tuberculosis into monocytes: up to 18.28%
[3]; post-treatment: infection 1 hour then 10 ng/ml for 24 hours, without drug 8320
  CFU counts: 4090 per 10,000 cells
[3]; post-treatment: infection 1 hour then 20 ng/ml for 24 hours, without drug 8320
  CFU counts: 2858 per 10,000 cells
[3]; pre-treatment 1 hour then infection 24 hours, 10 ng/ml, without drug 7358
  CFU counts: 5880 per 10,000 cells
[3]; pre-treatment 1 hour then infection 24 hours, 20 ng/ml, without drug 7358
  CFU counts: 4000 per 10,000 cells
[4]
  CD13 expression on monocytes: down-regulation of CD13 expression
[5]; M. tuberculosis infected monocytes, 24 hours, EZETIMIBE 10 μg/ml, without drug 1.4
  relative fluorescence of FL1 channel (nile red, neutral lipids): 0.9
[5]; M. tuberculosis infected monocytes, 24 hours, EZETIMIBE 20 μg/ml, without drug 1.4
  relative fluorescence of FL1 channel (nile red, neutral lipids): 1.0
[5]; monocytes without infection, EZETIMIBE 10 μg/ml, without drug 1.5
  relative fluorescence of FL1 channel (nile red, neutral lipids): 1.2
[5]; monocytes without infection, EZETIMIBE 20 μg/ml, without drug 1.5
  relative fluorescence of FL1 channel (nile red, neutral lipids): 1.3
[6]; EZETIMIBE 10 μg/ml, cholesterol supplement 10 μg/ml, without drug 10600
  CFU counts: 7692 per 10,000 cells
[6]; EZETIMIBE 10 μg/ml, cholesterol supplement 20 μg/ml
  CFU counts: 12545 per 10,000 cells
[6]; EZETIMIBE 20 μg/ml, cholesterol supplement 10 μg/ml, without drug 10600
  CFU counts: 4800 per 10,000 cells
[6]; EZETIMIBE 20 μg/ml, cholesterol supplement 20 μg/ml
  CFU counts: 10333 per 10,000 cells
